In PubChem BioAssay (NCI):
Values joined by “and” are separate entries in the source; they are usually repeats but may differ in a detail not shown here. Equal entries are not always repeated.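 These data come from cells grown in 96-well plates and exposed to compound for 48 hours at five concentrations. GI50 marks 50% less growth. TGI denotes the concentration required for complete inhibition of growth.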

What was measured:
Assay in all cases: inhibition of tumour cell growth, NCI panel, 48 h
NCI-H522 lung = tested on: NCI-H522 lung
SF-539 CNS = tested on: SF-539 CNS
SK-MEL-28 melanoma = tested on: SK-MEL-28 melanoma
SK-OV-3 ovarian = tested on: SK-OV-3 ovarian
HL-60(TB) leukemia = tested on: HL-60(TB) leukemia
NCI-H226 lung = tested on: NCI-H226 lung
SW-620 colon = tested on: SW-620 colon
SNB-75 CNS = tested on: SNB-75 CNS
SK-MEL-5 melanoma = tested on: SK-MEL-5 melanoma
OVCAR-3 ovarian = tested on: OVCAR-3 ovarian

SMILES | TGI (NCI-H522 lung) | TGI (SF-539 CNS) | TGI (SK-MEL-28 melanoma) | TGI (SK-OV-3 ovarian) | TGI (HL-60(TB) leukemia) | TGI (NCI-H226 lung) | TGI (SW-620 colon) | TGI (SNB-75 CNS) | TGI (SK-MEL-5 melanoma) | TGI (OVCAR-3 ovarian) | GI50 (NCI-H522 lung) | GI50 (SF-539 CNS) | GI50 (SK-MEL-28 melanoma) | GI50 (SK-OV-3 ovarian) | GI50 (HL-60(TB) leukemia) | GI50 (NCI-H226 lung) | GI50 (SW-620 colon) | GI50 (SNB-75 CNS) | GI50 (SK-MEL-5 melanoma) | GI50 (OVCAR-3 ovarian)
CC1=C2C(O)C(C(C)CO)C(O)CC2(C)C(O)CC1 (stereo not drawn) | > 100 µM | > 100 µM | > 100 µM | > 100 µM | > 100 µM | > 100 µM | > 100 µM | > 100 µM | > 100 µM | > 100 µM | – | – | – | – | – | – | – | – | – | –
CN1CCN(Cc2ccc(NC(=O)c3cncc(C#Cc4cnc(N)c5ccc(F)cc45)c3)cc2C(F)(F)F)CC1 | 6.53 µM | 6.13 µM | 7.11 µM | 3.81 µM | 4.42 µM | 6.16 µM | 4.83 µM | 5.71 µM | 6.68 µM | 7.21 µM | 1860 nM | 2.03 µM | 2.52 µM | 1.03 µM | 1.05 µM | 1050 nM | 1.3 µM | 1300 nM | 2.26 µM | 2.35 µM
O=[N+]([O-])c1ccc2[nH]cc(-c3c4ccsc4cc4[nH]c5ccc([N+](=O)[O-])cc5c34)c2c1 | 3.42 µM | 1.91 µM | 6.44 µM | 7.21 µM | 19.4 µM | 3.95 µM | 8.37 µM | 3.03 µM | 2.01 µM | 1.44 µM | 423 nM | 0.697 µM | 1.38 µM | 1.25 µM | 1.1 µM | 967 nM | 1.07 µM | 618 nM | 0.394 µM | 0.354 µM
CC(C)=CC(C(O)c1ccccc1)S(=O)(=O)c1nccn1C (stereo not drawn) | > 100 µM | > 100 µM | > 100 µM | > 100 µM | > 100 µM | > 100 µM | > 100 µM | > 100 µM | > 100 µM | > 100 µM | – | – | – | – | – | – | – | – | – | –
C=CCCCCCCCCCCCC1CCC(CC)N1 (stereo not drawn) | 13.5 µM | 25.3 µM | 29.6 µM | 31.6 µM | 9.01 µM | 49.1 µM | 24.6 µM | 33.9 µM | 25.5 µM | 23 µM | – | – | – | – | – | – | – | – | – | –
O=c1ccn(C2OC(CO)C(O)C2O)c(=O)[nH]1 (stereo not drawn) | > 1000 µM | > 1000 µM | > 1000 µM | > 1000 µM | > 1000 µM | > 1000 µM | > 1000 µM | > 1000 µM | > 1000 µM | > 1000 µM | – | > 1000 µM | > 1000 µM | > 1000 µM | > 1000 µM | – | > 1000 µM | 789000 nM and > 10000 nM | > 1000 µM | > 1000 µM
CCCCNc1nc(NC(C)(C)C)nc(NC(C)(C)C)n1 | > 100 µM | > 100 µM | > 100 µM | > 100 µM | > 100 µM | > 100 µM | > 100 µM | 68.7 µM | 17.7 µM | > 100 µM | 6320 nM | 16.9 µM | 30 µM | 19.4 µM | 15.7 µM | 6440 nM | 7.2 µM | 12800 nM | 3.49 µM | 12.6 µM
CC(=O)O/N=C/c1ncccc1CO | > 100 µM | > 100 µM | > 100 µM | > 100 µM | > 100 µM | > 100 µM | > 100 µM | > 100 µM | > 100 µM | > 100 µM | – | – | – | – | – | – | – | – | – | –
CC(=O)O[C@H]1C(N(C)C(=O)c2ccccc2)CC[C@]2(C)C3CC[C@@]4(C)C(CC(O)[C@@H]4C(C)N(C)C)[C@@H]3CCC12 (stereo partly drawn) | > 100 µM | > 100 µM | > 100 µM | > 100 µM | > 100 µM | > 100 µM | > 100 µM | > 100 µM | > 100 µM | > 100 µM | – | – | – | – | – | – | – | – | – | –
COc1cc2nc(-c3ccc(C(F)(F)F)cc3)cc(OCCCN3CCOCC3)c2cc1OC | 15.3 µM | 16.4 µM | 3.27 µM | 22.4 µM | 47.3 µM | 4.87 µM | 15.4 µM | 9.51 µM | 0.997 µM | 18.4 µM | 2520 nM | 3.18 µM | 1.44 µM | 5.04 µM | 9.58 µM | 406 nM | 3.51 µM | 2460 nM | 0.288 µM | 3.72 µM
Nc1nc(-c2cccc([N+](=O)[O-])c2)c(Br)c(=O)[nH]1 | > 100 µM | > 82 µM | > 100 µM | > 100 µM | > 100 µM | > 100 µM | > 100 µM | > 100 µM | > 91.1 µM | > 100 µM | – | – | – | – | – | – | – | – | – | –
CN(C)CCNc1nc2ccccc2c2c1c1c(n2Cc2ccccc2)-c2ccccc2C1=O | 35.3 µM | 29.4 µM | 32.3 µM | 45.1 µM | 34.1 µM | 50.3 µM | 24 µM | 28.9 µM | 30.9 µM | 34.8 µM | 11000 nM | 14 µM | 16.8 µM | 20.3 µM | 15.2 µM | 20200 nM | 7.96 µM | 14400 nM | 15.8 µM | 17.2 µM
O=C1C(Br)=C[C@H]2C3C=CC(Br)(C3=O)[C@@H]12 (stereo partly drawn) | 18.2 µM | 39.4 µM | 25.7 µM | > 100 µM | 23 µM | 40.9 µM | 21.1 µM | 92.8 µM | 27.2 µM | 27.1 µM | – | – | – | – | – | – | – | – | – | –
N#CCCc1nc2ccc(Br)cc2c(=O)n1CCO | > 100 µM | > 100 µM | > 100 µM | > 100 µM | > 100 µM | > 100 µM | > 100 µM | > 100 µM | > 100 µM | > 100 µM | – | – | – | – | – | – | – | – | – | –
CCOC(=O)[C@@H](C)C[C@H](Cc1ccccc1)NC(=O)c1csc([C@@H](C[C@H](C(C)C)N(C)C(=O)[C@@H](NC(=O)[C@H]2C[C@H](O[Si](C)(C)C(C)(C)C)CCN2C)C(C)C)OC(C)=O)n1 | 1.03 µM | 0.625 µM | > 8.33 µM | > 8.33 µM | 0.896 µM | > 4.18 µM | > 8.33 µM | 0.76 µM | 1.39 µM | > 2.07 µM | 128 nM | 0.21 µM | 0.491 µM | 0.198 µM | 0.249 µM | 493 nM | 0.319 µM | 205 nM | 0.187 µM | 0.192 µM
